Earlier results in US6797829B1, “Synthesis of a novel paramagnetic amino derivative (epm-5) for labelling chemical and biological macromolecules” (Conselho Nacional de Desenvolvimento Cientifico e …, priority 1999, dated 2004).
Like-named read-outs stand apart in the source and are kept apart here.

CC1(C)CC(N)(C(=O)O)CC(C)(C)N1[O] [Toac, 2,2,6,6tetramethylpiperidine-1-oxyl-4-amine-4-carboxylic acid]
pKa of the amine group (in free state): 8
pKa of the amine group (when bound to the N-terminal portion of a peptide chain): about 5.5
